Measured values published in publication PMC3758320, “Fate of Ingested Clostridium difficile Spores in Mice” (PLoS ONE, 2013).
Blank lines part the entries; values can stand above or below the compound they belong to.

Assays:
C. difficile spores [1] = test: Prevention of CDI by bile salt analogs in mice challenged with C. difficile spores; assay type: in vivo, C57BL/6N mice; settings: for CDI signs: mice challenged with 10^8 CFU C. difficile spores, three doses
Vero cells [2] = test: Cytotoxicity in Vero cells; assay type: cell-based; settings: overnight
Protocol: (§1) Vero cells, Caco-2 cells, and murine macrophages J774A.1 were seeded in complete medium (minimum essential medium (MEM), 10% fetal bovine serum (FBS), and 1% penicillin/streptomycin). Cells were grown at 37°C with 5% CO2. Cells were detached by incubation with 1 mM EDTA-trypsin for 5 minutes. Complete medium was then added and monolayers lifted with a cell scraper. Cells were recovered at 800×g for 5 minutes at room temperature and the cell pellet was resuspended in fresh complete medium. A sample of cell suspension was treated with trypan blue to determine background non-viable cells. […]
(§2) The 12-well plates containing cell cultures were used as a qualitative method to determine cytotoxicity by visual observation of morphological changes, such as cell rounding. Cell viability was also determined by trypan blue dye exclusion staining. The 96-well plates cultured with mammalian cells were used as a quantitative method to determine cytotoxicity using the CellTiter Glo Luminescent cell viability assay. This assay quantitates the concentration of ATP, which indicates metabolically active cells. […] Luminescence was read with an integration time of 1 second per well using a Tecan Infinite 200 plate reader and iControl software. The luminescence signals from cell cultures supplemented with DMSO only were set as 100% cell viability. […]

[3] = Stability in artificial gastric juice; assay type: in vitro ADME; settings: 24 hours incubation, 37°C, TLC
Protocol: (§3) CamSA was analyzed for stability in simulated gastric and intestinal juices as published. Briefly, 100 mg CamSA was added to 1 ml of either artificial intestinal or artificial gastric juice and incubated at 37°C. Aliquots were taken at 4, 8, 12, and 24 hours. Samples (1 µl) were spotted on silica TLC plates and allowed to air dry. Plates were developed with 75% ethyl acetate/methanol. TLC plates were visualized by spraying with a 10% wt/vol phosphomolybdic acid (PMA)/ethanol solution followed by heating at 100°C for 2 minutes. Quantification of CamSA was determined using a GE Healthcare Typhoon 9410 Variable Mode Imager and analyzed using ImageQuant TL 5.2 software.

C. difficile spores [4] = system: C. difficile spores; parameters: method as in PMID 23420906; settings: single 50 mg/kg dose; without any observable toxicity; cited from earlier work
E. coli [5] = test: Effect on bacterial growth (E. coli); assay type: cell-based, E. coli DH5α; settings: 10 mM in growth medium, OD580 over 8 hours
Protocol: (§4) Laboratory strains of E. coli DH5α, B. longum, L. gasseri, and C. difficile were individually inoculated from freezer stock onto appropriate agar medium as directed by ATCC. Plates were incubated overnight at 37°C either aerobically (L. gasseri and E. coli) or anaerobically (C. difficile and B. longum). Anaerobic conditions consisted of a 5% CO2, 10% H2, and 85% N2 environment. Single cell clones were carefully selected and used to inoculate 5 mL of liquid medium. Inoculated broth was shaken at 37°C for approximately four hours until optical density at 580 nm reached 0.8 representing exponential phase of growth. […] An increase of optical density at 580 nm (OD580) was used to measure exponential bacterial growth. The OD580 was recorded at 0, 1, 2, 3, 4, 6, and 8 hours post subculture inoculation. Growth inhibition was determined by comparing optical density of bile salt-treated cultures with untreated control cultures.

B. longum [6] = test: Stability after incubation with BSH-producing bacteria (B. longum); settings: 24 hours, 6 mM bile salt
C. difficile spores [7] = test: Enumeration of C. difficile vegetative cells and spores in GI contents and feces of treated mice; assay type: in vivo, C57BL/6N mice
Protocol: Cages from infected animals were changed and feces were collected at different time points. Selected animals were sacrificed at different time points and their GI tract observed for signs of disease. Gastrointestinal tracts were removed in blocks and GI tract contents were flushed with autoclaved water. Feces and intestinal contents were weighed and homogenized in autoclaved water. Aliquots of the fecal suspensions were heated to 68°C for 30 minutes. Heated and unheated feces and GI tract contents were serially diluted in water and plated on Clostridium difficile selective agar (CDSA). Plates were incubated anaerobically for 48 hours and colonies were counted to enumerate colony-forming units (CFUs). CFUs obtained from unheated samples represent the sum of C. difficile vegetative cells and spores. CFUs obtained from heated samples represent the number of C. difficile spores only. The presence of C. difficile was verified by PRO disk.

E. coli [8] = test: Stability after incubation with E. coli cultures; settings: 24 hour incubation
[9] = system: murine macrophages J774A.1; test: Cytotoxicity in murine macrophages J774A.1; assay type: cell-based; settings: macrophage cells, overnight
Protocol: as §1, §2

B. longum [10] = assay type: cell-based
[11] = Stability in artificial intestinal juice; assay type: in vitro ADME; settings: 24 hours incubation, 37°C, TLC
Protocol: as §3

Caco-2 cell monolayer = test: Caco-2 permeability assay
[12] = Stability in growth medium alone; assay type: in vitro ADME
Protocol: Following previous procedures, Escherichia coli DH5α, Bifidobacterium longum (ATCC BAA-999) and Lactobacillus gasseri (ATCC 33323) were incubated for 24 hours at 37°C. […] Samples of spent media were taken at 4, 8, 12, and 24 hours. Bile salt concentration was monitored by TLC as above. Percent conjugated bile salts were derived by dividing the intensity of TLC spots obtained at different times by the intensity of the TLC spot obtained before incubation.

Caco-2 cells = test: Cytotoxicity in Caco-2 cells; assay type: cell-based; settings: overnight
Protocol: as §1, §2

C. difficile spores [13] = test: Outgrowth of C. difficile spores in germination medium; assay type: cell-based, C. difficile strain 630; settings: 200 µM in medium, overnight
L. gasseri [14] = test: Stability after incubation with BSH-producing bacteria (L. gasseri); settings: 24 hours, 6 mM bile salt
Vero cells [15] = test: C. difficile toxin-induced cell death (spent media on Vero cells); assay type: cell-based; settings: 200 µM; Vero cells exposed 24 hours
Protocol: C. difficile strain 630 spores were washed five times with nanopure water, heat activated at 68°C for 30 minutes and washed five more times with water. Spore pellets were resuspended in 0.1 M sodium phosphate buffer supplemented with 0.5% sodium bicarbonate (pH 6.0) to an OD580 of 1.0. […] Spore suspensions were incubated anaerobically at 37°C overnight. The following day, C. difficile cells and spores were removed by centrifugation and spent media filter sterilized. In parallel, Vero and Caco-2 cells were cultured in 96-well plates, as described above. The mammalian cell cultures were then exposed to varying concentrations of sterile spent media for 24 hours. Cell viability was determined as before with the CellTiter Glo viability kit. The luminescence signals from cell cultures supplemented with 0% spent media were set as 100% cell viability. Percent survival for other conditions was calculated relative to these untreated cells.

C. difficile spores [16] = test: Onset of CDI signs in mice (timing of dosage); assay type: in vivo, C57BL/6N mice
Protocol: Antibiotic treated mice were challenged by oral gavage with 10^8 CFUs of C. difficile strain 630 spores. Individual groups of five mice were treated with a single 300 mg/kg dose of CamSA at 0, 6, 9 or 12 hours post-spore challenge. A second 300 mg/kg dose of CamSA was administered 24 hours after the first dose.

mice [17] = test: Acute toxicity in mice (Fixed Dose Procedure); settings: oral gavage, three consecutive days, doses up to saturating 300 mg/kg
L. gasseri [18] = assay type: cell-based
C. difficile = test: Effect on bacterial growth (C. difficile vegetative cells); assay type: cell-based; settings: 10 mM in growth medium, OD580 over 8 hours
Protocol: as §4

[19] = Caco-2 permeability assay; settings: human, Caco-2
mice [20] = settings: mouse, in vivo, po
[21] = system: C. difficile spore germination; parameters: method as in PMID 21478359; settings: in vitro; read-out: IC50, inhibition of C. difficile spore germination; cited from earlier work
[22] = Caco-2, 10 µM, 2 hour incubation
[23] = 300 mg/kg given at 9 or 12 hours post-challenge

SMILES: C[C@H](CCC(=O)Nc1cccc(S(=O)(=O)O)c1)[C@H]1CC[C@H]2[C@@H]3[C@H](O)C[C@@H]4C[C@H](O)CC[C@]4(C)[C@H]3C[C@H](O)[C@]12C [CamSA]
CDI signs (C. difficile spores [1]; 50 mg/kg oral gavage): no sign of CDI
CDI signs (C. difficile spores [1]; 300 mg/kg oral gavage): no sign of CDI
time without signs of CDI post-challenge (C. difficile spores [1]; treated, spore-challenged mice): ≥ 14 days
cell viability, visual observation and trypan blue staining (Vero cells [2]): appeared healthy
degradation in artificial gastric juice [3]: No degradation
prevention of CDI in mice (C. difficile spores [4]): prevented CDI
growth of E. coli (E. coli [5]): unaffected
hydrolysis to cholic acid by B. longum culture (B. longum [6]): hydrolyzed to cholic acid at similar rates
C. difficile vegetative cells in feces compared to spore counts (C. difficile spores [7]; mice treated with 50 mg/kg): < 10%
C. difficile content of feces (C. difficile spores [7]; treated mice): almost exclusively spores
spores recovered from the cecum and colon (C. difficile spores [7]; treated mice, before the decrease (up to 72 hours after spore challenge)): greater than 12×10^5 CFUs
spores recovered from the cecum and colon (C. difficile spores [7]; treated mice, by 96 hours after spore challenge): less than 2×10^5 CFUs
duration of excretion of ingested C. difficile spores post-challenge (C. difficile spores [7]; treated mice, feces): at least 96 hours
start of excretion of ingested C. difficile spores post-challenge (C. difficile spores [7]; treated mice, feces): 2 h
stability in E. coli cultures (E. coli [8]): stable
cell viability, visual observation and trypan blue staining [9]: appeared healthy
growth of B. longum (B. longum [10]): unaffected
degradation in artificial intestinal juice [11]: No degradation
Comment: efflux (Caco-2 cell monolayer; 10 µM, two hours): Efflux substrate
Comment: permeability ranking (Caco-2 cell monolayer; 10 µM, two hours): Low (Low (Papp < 0.5))
Efflux Ratio (Caco-2 cell monolayer; 10 µM, two hours, >2 indicates significant efflux activity): >2
apical to basolateral apparent permeability coefficient (Papp) (Caco-2 cell monolayer; [22]): < 10^−6 cm/s
basolateral to apical Papp (Caco-2 cell monolayer; [22]): 10.9 ×10⁻⁶ cm/s
recovery (Caco-2 cell monolayer; both A→B and B→A assays): 100%
degradation in growth medium alone [12]: not degraded
cell viability, visual observation and trypan blue staining (Caco-2 cells): appeared healthy
bacterial growth from C. difficile spores (C. difficile spores [13]): reduced but not eliminated
fraction hydrolyzed to cholic acid by L. gasseri culture (L. gasseri [14]): Less than 30%
cell killing by spent media from treated bacterial cultures (Vero cells [15]): less effective at killing epithelial cells
CDI outcome (C. difficile spores [16]; [23]): developed severe CDI
time to clinical endpoint post infection (C. difficile spores [16]; [23]): 48 h
protection from CDI (C. difficile spores [16]; 300 mg/kg given up to 6 hours post-challenge): fully protected from CDI
physical adverse effects or weight loss (mice [17]): No physical adverse effects or weight loss
growth of L. gasseri (L. gasseri [18]): unaffected
growth of C. difficile cells (C. difficile): grew normally

Papp A→B at 2 h, 10 µM [19]: 0.3 ×10⁻⁶ cm/s
Papp at 2 h, 10 µM [19]: < 0.5 ×10⁻⁶ cm/s
efflux ratio at 2 h, 10 µM [19]: 5.3
SMILES: CNC(=C[N+](=O)[O-])NCCSCc1ccc(CN(C)C)o1 [Ranitidine]

Papp A→B at 2 h, 10 µM [19]: 42.9 ×10⁻⁶ cm/s
Papp B→A at 2 h, 10 µM [19]: 16 ×10⁻⁶ cm/s
Papp at 2 h, 10 µM [19]: > 5 ×10⁻⁶ cm/s
efflux ratio at 2 h, 10 µM [19]: 0.4
SMILES: CC(=O)CC(c1ccccc1)c1c(O)c2ccccc2oc1=O (centres unmarked) [Warfarin]

SMILES: C[C@H](CCC(=O)O)[C@H]1CC[C@H]2[C@@H]3[C@H](O)C[C@@H]4C[C@H](O)CC[C@]4(C)[C@H]3CC[C@]12C [chenodeoxycholate]
delay of CDI onset (C. difficile spores [1]; 50 mg/kg): 24 h
CDI signs (C. difficile spores [1]; 50 mg/kg oral gavage): moderate to severe signs of CDI
observable side effects (mice [20]; 50 mg/kg): did not cause any observable side effects
acute toxicity outcome (mice [20]; 300 mg/kg): immediate death
IC50 [21]: 235 µM
